Data from patent US9801880B2, “Use of kinase inhibitors” (BerGenBio AS, priority 2013, dated 2017).
“And” between values parts separate entries of the source, which are not always exact repeats. Equal entries are not always repeated.

How the values were obtained:
[1] = tested on: Ba/F3 cells expressing T315I mutated Bcr-Abl1 fusion protein; experiment: WST-1 cell viability, Ba/F3 cells expressing Bcr-Abl1 T315I; type: cell-based; details: Mus musculus, BaF3, 48 hours, serum free, read-out: IB50 cell viability
Experimental: Ba/F3 cells either stably overexpressing Bcr-Abl1 (A) or the mutant Bcr-Abl1 T315I (B) were cultured overnight in serum free RPMI-1640 media supplemented with 2 mM glutamine, 100 U/mL penicillin and 100 μg/mL streptomycin (Sigma-Aldrich). The following day, cells were plated in a 96-well plate with each well containing 2000 cells in a volume of 100 μl serum free RMPI media. […] The 96 well plates were incubated for 48 hours, and cell viability was measured in a WST-1 assay (Roche). Briefly, 5 μl WST-1 solution was added to each well and the 96-well plate was incubated for another 2 hours. The readout was performed in an ELSA reader at 480 nm. (measure)/620 nm (reference). Subsequent data analysis was performed with Microsoft Excel 2003 and GraphPad Prism 4.0.

[2] = target: Other mutations of Abl kinase that arise during development of resistance (Homo sapiens, UniProt P00519); experiment: Inhibition of other Abl kinase resistance mutations (biochemical assays); details: read-out: inhibition range, other mutations of Abl kinase
Excerpt: Detailed assay methodologies can be found in the relevant references cited herein, or in the KinaseProfiler Service Assay Protocols (v54, 2011) available from EMD Millipore (www.emdmillipore.com), or from the KinomeScan website (www.kinomescan.com), as appropriate. (For a more detailed description of KINOMEscan's assay technology, see: Fabian et al. A small molecule-kinase interaction map for clinical kinase inhibitors. Nat. Biotechnol. 23, 329-336 (2005)). A summary is provided below.
KinaseProfiler™ assays (EMD Millipore Corp. Billerica, Mass., USA) are […] with purified or partially-purified human kinases. Most of the KinaseProfiler™ assays are conducted in 20 mM MOPS, 1 mM EDTA, 0.01% Brij-35, 5% Glycerol, 0.1% b-mercaptoethanol, 1 mg/mL BSA. The assay involves the transfer of ^32P from γ-^32P-ATP to the target peptide, followed by washing and trapping of the labeled peptide on a filter. The concentration of γ-^32P-ATP used was at the established Km for ATP.

[3] = target: c-Kit (D816V) (Homo sapiens, UniProt P10721, D816V); experiment: KinaseProfiler kinase activity assay; type: biochemical; set-up: purchased EMD Millipore Corp. (KinaseProfiler service)
Experimental: (§2) KinaseProfiler™ assays (EMD Millipore Corp. Billerica, Mass., USA) are radioligand binding assays with purified or partially-purified human kinases. Most of the KinaseProfiler™ assays are conducted in 20 mM MOPS, 1 mM EDTA, 0.01% Brij-35, 5% Glycerol, 0.1% b-mercaptoethanol, 1 mg/mL BSA. The assay involves the transfer of ^32P from γ-^32P-ATP to the target peptide, followed by washing and trapping of the labeled peptide on a filter. The concentration of γ-^32P-ATP used was at the established Km for ATP.

[4] = tested on: BaF3/T315I cells; experiment: Subcutaneous BaF3/T315I tumor model; type: in vivo; details: 25 (or 50) mg/kg twice per day via gavage; NSG mice
Experimental: 6- to 8-week-old male NSG mice were implanted subcutaneously with 1×10^7 BaF3/wt-BCR-ABL or 1×10^7 BaF3/T315I cells per mouse into the right flank. Five days after implantation mice were randomized into groups with a mean volume of approximately 100 mm^3. […] Tumor volume was measured every 2-3 days. Animals were sacrificed at day 12 and tumors embedded for histology.

[5] = tested on: plasma protein; experiment: Plasma protein binding; type: in vitro ADME; details: in animals and humans
[6] = target: Wee1 (Homo sapiens, UniProt P30291); experiment: KinaseProfiler kinase activity assay; type: biochemical; set-up: purchased EMD Millipore Corp. (KinaseProfiler service); details: ATP at Km
Excerpt: (§1) A summary is provided below.

[7] = target: Ret (Homo sapiens, UniProt P07949); experiment: KinaseProfiler kinase activity assay; type: biochemical; set-up: purchased EMD Millipore Corp. (KinaseProfiler service); details: ATP at Km
Excerpt: as §1

[8] = target: Flt4 (Homo sapiens, UniProt P35916); experiment: KinaseProfiler kinase activity assay; type: biochemical; set-up: purchased EMD Millipore Corp. (KinaseProfiler service); details: ATP at Km
Excerpt: as §1

[9] = target: Stk10 (Homo sapiens, UniProt O94804); experiment: KinaseProfiler kinase activity assay; type: biochemical; set-up: purchased EMD Millipore Corp. (KinaseProfiler service); details: Stk10 (LOK); ATP at Km
Excerpt: as §1

[10] = target: T1, c-Kit (V654A) (Homo sapiens, UniProt P10721, V654A); experiment: KinaseProfiler kinase activity assay; type: biochemical
T1 construct: purchased EMD Millipore Corp. (KinaseProfiler service)
T1 sequence (P10721 26-976 V654A): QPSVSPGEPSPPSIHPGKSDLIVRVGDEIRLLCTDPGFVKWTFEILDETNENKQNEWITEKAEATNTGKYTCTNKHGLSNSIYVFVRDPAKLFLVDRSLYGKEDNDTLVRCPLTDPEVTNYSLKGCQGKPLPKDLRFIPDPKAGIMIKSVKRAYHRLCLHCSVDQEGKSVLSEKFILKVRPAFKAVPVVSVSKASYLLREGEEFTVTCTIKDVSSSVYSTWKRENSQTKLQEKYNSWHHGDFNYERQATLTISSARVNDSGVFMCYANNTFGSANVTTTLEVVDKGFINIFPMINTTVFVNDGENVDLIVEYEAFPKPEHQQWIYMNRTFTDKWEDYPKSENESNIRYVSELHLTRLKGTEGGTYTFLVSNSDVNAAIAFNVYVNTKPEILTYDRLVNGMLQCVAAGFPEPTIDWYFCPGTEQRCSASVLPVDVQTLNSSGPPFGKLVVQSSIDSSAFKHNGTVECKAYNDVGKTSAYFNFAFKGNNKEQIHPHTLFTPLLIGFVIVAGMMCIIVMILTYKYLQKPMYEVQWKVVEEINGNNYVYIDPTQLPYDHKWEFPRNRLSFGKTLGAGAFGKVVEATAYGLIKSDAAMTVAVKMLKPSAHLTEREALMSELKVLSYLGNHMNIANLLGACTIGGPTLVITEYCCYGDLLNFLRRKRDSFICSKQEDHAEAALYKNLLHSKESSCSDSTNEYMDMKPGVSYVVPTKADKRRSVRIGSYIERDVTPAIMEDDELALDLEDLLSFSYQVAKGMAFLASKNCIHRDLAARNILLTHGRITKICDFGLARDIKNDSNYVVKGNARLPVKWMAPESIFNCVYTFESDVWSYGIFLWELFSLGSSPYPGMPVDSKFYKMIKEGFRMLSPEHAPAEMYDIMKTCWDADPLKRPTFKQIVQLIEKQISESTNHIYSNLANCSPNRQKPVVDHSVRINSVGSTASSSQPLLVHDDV
Experimental: as §2

Sequence of Ret (P07949 29-1114): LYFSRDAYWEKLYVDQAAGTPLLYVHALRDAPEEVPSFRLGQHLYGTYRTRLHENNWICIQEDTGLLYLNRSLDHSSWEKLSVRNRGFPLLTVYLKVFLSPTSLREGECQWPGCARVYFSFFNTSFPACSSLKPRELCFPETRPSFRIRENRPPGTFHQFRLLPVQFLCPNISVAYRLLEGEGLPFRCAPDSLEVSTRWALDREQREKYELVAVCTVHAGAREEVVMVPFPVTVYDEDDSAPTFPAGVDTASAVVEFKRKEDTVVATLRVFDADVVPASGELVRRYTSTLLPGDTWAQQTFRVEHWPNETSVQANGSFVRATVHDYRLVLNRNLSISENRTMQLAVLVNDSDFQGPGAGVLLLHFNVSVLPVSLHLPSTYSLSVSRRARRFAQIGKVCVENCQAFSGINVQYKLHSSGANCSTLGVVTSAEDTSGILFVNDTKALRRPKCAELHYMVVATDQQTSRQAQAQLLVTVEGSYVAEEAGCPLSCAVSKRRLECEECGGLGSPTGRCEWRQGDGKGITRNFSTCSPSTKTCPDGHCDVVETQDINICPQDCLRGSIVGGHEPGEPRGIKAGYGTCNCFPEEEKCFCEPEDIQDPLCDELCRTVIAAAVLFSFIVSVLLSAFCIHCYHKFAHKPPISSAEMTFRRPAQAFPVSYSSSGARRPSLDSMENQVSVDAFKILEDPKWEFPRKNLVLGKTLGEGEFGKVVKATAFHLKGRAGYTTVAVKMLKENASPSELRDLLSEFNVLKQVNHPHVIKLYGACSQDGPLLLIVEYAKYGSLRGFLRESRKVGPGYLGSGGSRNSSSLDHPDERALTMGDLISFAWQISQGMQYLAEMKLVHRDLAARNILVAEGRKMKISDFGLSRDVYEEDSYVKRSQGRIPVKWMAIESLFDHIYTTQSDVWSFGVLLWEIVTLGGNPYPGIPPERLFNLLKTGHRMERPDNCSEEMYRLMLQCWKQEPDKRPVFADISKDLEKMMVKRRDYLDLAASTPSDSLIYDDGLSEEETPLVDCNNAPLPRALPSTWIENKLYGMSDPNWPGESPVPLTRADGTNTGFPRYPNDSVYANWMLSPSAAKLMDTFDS
Sequence of Stk10 (O94804 whole entry): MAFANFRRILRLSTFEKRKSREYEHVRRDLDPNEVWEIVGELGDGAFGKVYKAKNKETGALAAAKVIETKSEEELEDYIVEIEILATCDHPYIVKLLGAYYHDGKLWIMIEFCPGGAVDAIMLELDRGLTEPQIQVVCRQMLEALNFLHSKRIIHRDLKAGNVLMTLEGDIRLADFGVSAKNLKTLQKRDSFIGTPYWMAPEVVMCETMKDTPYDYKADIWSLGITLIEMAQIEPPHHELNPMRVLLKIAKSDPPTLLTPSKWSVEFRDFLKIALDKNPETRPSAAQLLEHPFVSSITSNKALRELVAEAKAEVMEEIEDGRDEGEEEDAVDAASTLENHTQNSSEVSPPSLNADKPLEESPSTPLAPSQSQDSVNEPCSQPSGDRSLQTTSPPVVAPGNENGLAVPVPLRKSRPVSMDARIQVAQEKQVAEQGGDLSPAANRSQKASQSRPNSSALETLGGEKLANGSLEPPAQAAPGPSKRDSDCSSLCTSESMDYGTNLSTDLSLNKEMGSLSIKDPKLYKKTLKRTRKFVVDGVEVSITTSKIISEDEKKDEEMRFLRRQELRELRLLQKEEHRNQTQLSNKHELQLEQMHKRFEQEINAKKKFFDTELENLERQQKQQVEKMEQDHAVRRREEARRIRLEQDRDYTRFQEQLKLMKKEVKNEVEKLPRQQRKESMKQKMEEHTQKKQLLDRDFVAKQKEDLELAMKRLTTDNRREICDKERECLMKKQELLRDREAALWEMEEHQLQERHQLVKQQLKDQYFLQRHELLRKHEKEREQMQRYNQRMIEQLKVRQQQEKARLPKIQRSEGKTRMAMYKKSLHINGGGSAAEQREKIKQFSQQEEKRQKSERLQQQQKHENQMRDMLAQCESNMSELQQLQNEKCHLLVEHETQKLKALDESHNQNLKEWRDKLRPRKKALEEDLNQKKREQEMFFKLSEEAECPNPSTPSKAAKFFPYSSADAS
Sequence of Other mutations of Abl kinase that arise during development of resistance (P00519 whole entry, looked up, change not shown): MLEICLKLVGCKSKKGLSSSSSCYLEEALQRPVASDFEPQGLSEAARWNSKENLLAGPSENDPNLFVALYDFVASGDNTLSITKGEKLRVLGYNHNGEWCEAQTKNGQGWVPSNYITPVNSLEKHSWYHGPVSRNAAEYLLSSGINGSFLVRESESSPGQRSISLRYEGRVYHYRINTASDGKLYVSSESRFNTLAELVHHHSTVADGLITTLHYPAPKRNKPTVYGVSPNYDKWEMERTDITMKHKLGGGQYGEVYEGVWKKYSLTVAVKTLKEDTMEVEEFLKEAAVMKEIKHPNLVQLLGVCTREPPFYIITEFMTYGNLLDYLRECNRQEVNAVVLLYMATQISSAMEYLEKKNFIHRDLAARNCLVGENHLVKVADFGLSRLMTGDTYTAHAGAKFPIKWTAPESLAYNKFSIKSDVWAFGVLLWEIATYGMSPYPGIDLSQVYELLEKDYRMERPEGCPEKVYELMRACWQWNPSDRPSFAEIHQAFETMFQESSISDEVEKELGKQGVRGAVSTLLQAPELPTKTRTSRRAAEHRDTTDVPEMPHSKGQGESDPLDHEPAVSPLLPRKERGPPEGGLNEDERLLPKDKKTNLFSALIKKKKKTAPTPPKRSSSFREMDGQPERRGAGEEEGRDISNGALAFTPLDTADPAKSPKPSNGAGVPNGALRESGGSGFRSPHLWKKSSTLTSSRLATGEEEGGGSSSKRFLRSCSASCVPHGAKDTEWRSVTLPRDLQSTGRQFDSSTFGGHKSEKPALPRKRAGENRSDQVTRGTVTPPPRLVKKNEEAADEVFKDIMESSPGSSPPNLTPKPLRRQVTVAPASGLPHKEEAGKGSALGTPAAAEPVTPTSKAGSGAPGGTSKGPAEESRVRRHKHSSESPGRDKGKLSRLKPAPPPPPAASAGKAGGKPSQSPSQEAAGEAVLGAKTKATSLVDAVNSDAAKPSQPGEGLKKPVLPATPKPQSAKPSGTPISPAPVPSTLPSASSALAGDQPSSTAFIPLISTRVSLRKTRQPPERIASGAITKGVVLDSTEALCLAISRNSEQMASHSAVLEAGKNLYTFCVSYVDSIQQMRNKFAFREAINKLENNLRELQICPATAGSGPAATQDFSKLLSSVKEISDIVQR
Sequence of c-Kit (D816V) (P10721 26-976 D816V): as the sequence (P10721 26-976 V654A) above, with A629V, D791V counted along it
Sequence of Wee1 (P30291 whole entry): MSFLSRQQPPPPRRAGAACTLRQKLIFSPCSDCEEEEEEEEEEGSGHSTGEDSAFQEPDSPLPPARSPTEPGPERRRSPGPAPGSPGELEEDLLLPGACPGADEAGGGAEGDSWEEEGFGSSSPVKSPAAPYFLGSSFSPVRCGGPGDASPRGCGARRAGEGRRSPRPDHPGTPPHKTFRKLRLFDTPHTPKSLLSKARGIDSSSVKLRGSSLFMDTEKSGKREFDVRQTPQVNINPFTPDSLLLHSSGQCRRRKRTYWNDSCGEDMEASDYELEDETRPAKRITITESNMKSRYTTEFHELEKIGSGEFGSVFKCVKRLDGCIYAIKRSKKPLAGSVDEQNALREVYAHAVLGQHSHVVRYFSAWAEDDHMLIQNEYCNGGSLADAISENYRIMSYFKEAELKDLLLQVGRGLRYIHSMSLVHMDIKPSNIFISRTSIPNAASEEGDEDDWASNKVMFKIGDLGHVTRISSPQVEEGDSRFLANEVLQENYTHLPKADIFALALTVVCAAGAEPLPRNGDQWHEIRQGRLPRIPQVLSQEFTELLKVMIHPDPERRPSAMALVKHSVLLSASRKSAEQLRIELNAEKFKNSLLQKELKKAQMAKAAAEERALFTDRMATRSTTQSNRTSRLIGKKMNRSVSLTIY

Compound: Nc1nc(Nc2ccc3c(c2)CC[C@@H](N2CCCC2)CC3)nn1-c1cc2c(nn1)-c1ccccc1CCC2 [Compound A, 1-(6,7-dihydro-5H-benzo[6,7]cyclohepta[1,2-c]pyridazine-3-yl)-N^3-(7-(S)-(pyrrolidin-1-yl)-6,7,8,9-tetrahydro-5H-benzo[7]annulene-2-yl)-1H-1,2,4-triazole-3,5-diamine]
- IC50 [1]: 570 nM
- IC50 [2]: 16 to 32 nM
- IC50 [3]: 177 nM
- inhibition of T315I mutated CML in vivo (tumor volume) [4]: potentially inhibits
- binding to plasma protein [5]: > 99%
- IC50 [6]: 32 nM
- IC50 [7]: 38 nM and 22 nM
- IC50 [8]: 41 nM
- IC50 [9]: 22 nM
- IC50 [10]: 286 nM
